Results reported in PubChem BioAssay AID2060496 (Molecular Pharmacology Branch, DTP, NCI, 2025).

System: 276233-004-R-J1-PDC complex spheroid viability
Assay: Anticancer human tumor 276233-004-R-J1-PDC patient-derived colon adenocarcinoma cell line growth inhibition [GQUAD]
Settings: for IC50: curve of first compound; for viability, T/C: stronger effect = lower value
In short: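 Tumor cells were grown as complex spheroids with HUVEC endothelial cells and mesenchymal stem cells as stroma. G-quadruplex stabilizers were combined with targeted agents over half-log dilutions from near the clinical Cmax, or from 10 microM.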

[1] = second compound 0.0316 µM, first compound 0.0316 µM
[2] = second compound 0.0316 µM, first compound 0.1 µM
[3] = second compound 0.0316 µM, first compound 0.316 µM
[4] = second compound 0.0316 µM, first compound 1 µM
[5] = second compound 0.0316 µM, first compound 3.16 µM
[6] = second compound 0.0316 µM, first compound 10 µM
[7] = second compound 0.1 µM, first compound 0.0316 µM
[8] = second compound 0.1 µM, first compound 0.1 µM
[9] = second compound 0.1 µM, first compound 0.316 µM
[10] = second compound 0.1 µM, first compound 1 µM
[11] = second compound 0.1 µM, first compound 3.16 µM
[12] = second compound 0.1 µM, first compound 10 µM
[13] = second compound 0.316 µM, first compound 0.0316 µM
[14] = second compound 0.316 µM, first compound 0.1 µM
[15] = second compound 0.316 µM, first compound 0.316 µM
[16] = second compound 0.316 µM, first compound 1 µM
[17] = second compound 0.316 µM, first compound 3.16 µM
[18] = second compound 0.316 µM, first compound 10 µM
[19] = second compound 1 µM, first compound 0.0316 µM
[20] = second compound 1 µM, first compound 0.1 µM
[21] = second compound 1 µM, first compound 0.316 µM
[22] = second compound 1 µM, first compound 1 µM
[23] = second compound 1 µM, first compound 3.16 µM
[24] = second compound 1 µM, first compound 10 µM
[25] = second compound 3.16 µM, first compound 0.0316 µM
[26] = second compound 3.16 µM, first compound 0.1 µM
[27] = second compound 3.16 µM, first compound 0.316 µM
[28] = second compound 3.16 µM, first compound 1 µM
[29] = second compound 3.16 µM, first compound 3.16 µM
[30] = second compound 3.16 µM, first compound 10 µM
[31] = second compound 10 µM, first compound 0.0316 µM
[32] = second compound 10 µM, first compound 0.1 µM
[33] = second compound 10 µM, first compound 0.316 µM
[34] = second compound 10 µM, first compound 1 µM
[35] = second compound 10 µM, first compound 3.16 µM
[36] = second compound 10 µM, first compound 10 µM
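Note: spheroids exposed to drugs for seven days.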
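Throughout, for viability, T/C: 100% = DMSO vehicle control viability.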

COc1cc(C2c3cc4c(cc3C(OC3OC5COC(C)OC5C(O)C3O)C3COC(=O)C23)OCO4)cc(OC)c1O (stereo not drawn) + Cc1cnc(CNC(=O)c2c(=O)c3ccc(N4CCCN(C)CC4)nc3n3c2sc2ccccc23)cn1
IC50 (second compound 0.0316 µM): > 10 µM | IC50 (second compound 0.1 µM): > 10 µM | IC50 (second compound 0.316 µM): > 10 µM | IC50 (second compound 1 µM): > 10 µM | IC50 (second compound 3.16 µM): > 10 µM | IC50 (second compound 10 µM): > 10 µM | viability, T/C [1]: 83.2% | viability, T/C [2]: 91.7% | viability, T/C [3]: 87.8% | viability, T/C [4]: 72.9% | viability, T/C [5]: 98.6% | viability, T/C [6]: 82.1% | viability, T/C [7]: 97% | viability, T/C [8]: 92.2% | viability, T/C [9]: 76.2% | viability, T/C [10]: 95.3% | viability, T/C [11]: 75.5% | viability, T/C [12]: 88% | viability, T/C [13]: 85.4% | viability, T/C [14]: 77.3% | viability, T/C [15]: 86.9% | viability, T/C [16]: 94.8% | viability, T/C [17]: 73.1% | viability, T/C [18]: 81% | viability, T/C [19]: 84.8% | viability, T/C [20]: 80.2% | viability, T/C [21]: 85.8% | viability, T/C [22]: 83.2% | viability, T/C [23]: 96.4% | viability, T/C [24]: 78.2% | viability, T/C [25]: 78.7% | viability, T/C [26]: 78.2% | viability, T/C [27]: 76.7% | viability, T/C [28]: 76.9% | viability, T/C [29]: 87.7% | viability, T/C [30]: 75.2% | viability, T/C [31]: 65.1% | viability, T/C [32]: 72.2% | viability, T/C [33]: 70.9% | viability, T/C [34]: 71.5% | viability, T/C [35]: 78.7% | viability, T/C [36]: 82.9%

Cc1cccc(N(C)C(=O)C2C(O)CCN2c2nc(C)cc(C(F)(F)F)c2C#N)c1 (stereo not drawn) + Cc1cnc(CNC(=O)c2c(=O)c3ccc(N4CCCN(C)CC4)nc3n3c2sc2ccccc23)cn1
IC50 (second compound 0.0316 µM): > 10 µM | IC50 (second compound 0.1 µM): > 10 µM | IC50 (second compound 0.316 µM): > 10 µM | IC50 (second compound 1 µM): > 10 µM | IC50 (second compound 3.16 µM): > 10 µM | IC50 (second compound 10 µM): > 10 µM | viability, T/C [1]: 89.8% | viability, T/C [2]: 75.8% | viability, T/C [3]: 90.8% | viability, T/C [4]: 84.7% | viability, T/C [5]: 98.8% | viability, T/C [6]: 92.8% | viability, T/C [7]: 75.4% | viability, T/C [8]: 78.2% | viability, T/C [9]: 80.1% | viability, T/C [10]: 88.6% | viability, T/C [11]: 80.2% | viability, T/C [12]: 82.5% | viability, T/C [13]: 77.2% | viability, T/C [14]: 72.1% | viability, T/C [15]: 81.9% | viability, T/C [16]: 76.4% | viability, T/C [17]: 86.4% | viability, T/C [18]: 84.8% | viability, T/C [19]: 73.5% | viability, T/C [20]: 79.1% | viability, T/C [21]: 85.6% | viability, T/C [22]: 79.5% | viability, T/C [23]: 77.6% | viability, T/C [24]: 87.4% | viability, T/C [25]: 65.7% | viability, T/C [26]: 69.8% | viability, T/C [27]: 70% | viability, T/C [28]: 56.6% | viability, T/C [29]: 79% | viability, T/C [30]: 71% | viability, T/C [31]: 69.9% | viability, T/C [32]: 63.3% | viability, T/C [33]: 73.9% | viability, T/C [34]: 69% | viability, T/C [35]: 66.5% | viability, T/C [36]: 79.3%

CC1COCCN1c1cc(C2(S(C)(=N)=O)CC2)nc(-c2ccnc3[nH]ccc23)n1 (stereo not drawn) + CN(C)c1ccc(Nc2c3ccc(NC(=O)CCN4CCCC4)cc3nc3cc(NC(=O)CCN4CCCC4)ccc23)cc1
IC50 (second compound 0.0316 µM): > 10 µM | IC50 (second compound 0.1 µM): > 10 µM | IC50 (second compound 0.316 µM): 4.01 µM | IC50 (second compound 1 µM): 1.96 µM | IC50 (second compound 3.16 µM): 3.16 µM | IC50 (second compound 10 µM): < 0.0316 µM | viability, T/C [1]: 97.8% | viability, T/C [2]: 91% | viability, T/C [3]: 89.8% | viability, T/C [4]: 81.3% | viability, T/C [5]: 66.7% | viability, T/C [6]: 67.4% | viability, T/C [7]: 95.1% | viability, T/C [8]: 84.5% | viability, T/C [9]: 75.2% | viability, T/C [10]: 65.5% | viability, T/C [11]: 74.6% | viability, T/C [12]: 66.9% | viability, T/C [13]: 74.5% | viability, T/C [14]: 75.7% | viability, T/C [15]: 47.8% | viability, T/C [16]: 64% | viability, T/C [17]: 59% | viability, T/C [18]: 39.8% | viability, T/C [19]: 65.8% | viability, T/C [20]: 47.6% | viability, T/C [21]: 59.5% | viability, T/C [22]: 52.9% | viability, T/C [23]: 50.1% | viability, T/C [24]: 43.9% | viability, T/C [25]: 58.4% | viability, T/C [26]: 61.5% | viability, T/C [27]: 63.1% | viability, T/C [28]: 46.4% | viability, T/C [29]: 52.7% | viability, T/C [30]: 55.6% | viability, T/C [31]: 36.8% | viability, T/C [32]: 45.5% | viability, T/C [33]: 33.7% | viability, T/C [34]: 52.5% | viability, T/C [35]: 37.2% | viability, T/C [36]: 71.4%

C=CCn1c(=O)c2cnc(Nc3ccc(N4CCN(C)CC4)cc3)nc2n1-c1cccc(C(C)(C)O)n1 + Cc1[nH]c2ccc(F)cc2c1-c1nc2c3cccnc3c3ncccc3c2[nH]1
IC50 (second compound 0.0316 µM): > 10 µM | IC50 (second compound 0.1 µM): > 10 µM | IC50 (second compound 0.316 µM): > 10 µM | IC50 (second compound 1 µM): 0.104 µM | IC50 (second compound 3.16 µM): < 0.0316 µM | IC50 (second compound 10 µM): < 0.0316 µM | viability, T/C [1]: 98.8% | viability, T/C [2]: 86.5% | viability, T/C [3]: 71.4% | viability, T/C [4]: 67.8% | viability, T/C [5]: 66.8% | viability, T/C [6]: 66.6% | viability, T/C [7]: 79.6% | viability, T/C [8]: 79.5% | viability, T/C [9]: 64.5% | viability, T/C [10]: 48.3% | viability, T/C [11]: 61% | viability, T/C [12]: 52.7% | viability, T/C [13]: 64% | viability, T/C [14]: 58.4% | viability, T/C [15]: 60.2% | viability, T/C [16]: 41.1% | viability, T/C [17]: 56.9% | viability, T/C [18]: 61.4% | viability, T/C [19]: 53.8% | viability, T/C [20]: 53.9% | viability, T/C [21]: 48% | viability, T/C [22]: 36.4% | viability, T/C [23]: 51.7% | viability, T/C [24]: 50.4% | viability, T/C [25]: 16.3% | viability, T/C [26]: 14% | viability, T/C [27]: 28.1% | viability, T/C [28]: 18.1% | viability, T/C [29]: 20.2% | viability, T/C [30]: 23.9% | viability, T/C [31]: 36.8% | viability, T/C [32]: 35.8% | viability, T/C [33]: 32.8% | viability, T/C [34]: 26.7% | viability, T/C [35]: 30.3% | viability, T/C [36]: 35.4%
